# Laboratory results: patent US20090191580A1, “METHOD OF SCREENING USING c-MET, A NOVEL SUBSTRATE FOR GAMMA-SECRETASE” (Eisai R & D Management Co., Ltd., priority 2007, published 2009)
# Tested on: cleavage of c-Met by γ-secretase
# Experiment: Analysis of c-Met processing in c-Met-transfected 293/EBNA-1 cell strain (Western blotting with anti-HA antibody)
# Assay type: cell-based, rat c-Met in HEK293 (293/EBNA-1) cells
# Set-up: dose or concentration left out as unconfirmed
# Conditions: Compound E added to culture broth, cultured another day, rat c-Met-HA transfected 293/EBNA-1 (HEK293) cells
# Method: Whether or not c-Met is a substrate for γ-secretase was evaluated using HEK293 cells expressing a gene encoding c-Met with an HA tag added to its C-terminus, in the presence of a γ-secretase inhibitor. As the γ-secretase inhibitor, (2S)-2-{[(3,5-difluorophenyl)acetyl]amino}-N-[(3S)-1-methyl-2-oxo-5-phenyl-2,3-dihydro-1H-1,4-benzodiazepin-3-yl]propanamide (hereinafter, sometimes referred to as “Compound E”) (Alexis Biochemicals) was used.
# 293/EBNA-1 cell strain (Invitrogen) was cultured in 10% FBS (Hyclone)/DMEM (Invitrogen) under 5% CO2 at 37° C., followed by transfection thereinto of the gene encoding rat c-Met with an HA tag added to its C-terminus using Lipofectamine 2000 (Invitrogen). After one day culture under the same conditions, […] Compound E (Alexis Biochemicals) was added to the culture broth. Cells were cultured for another day under the same conditions. Then, the transfected HEK293 cells were collected with PBS (Sigma) and sonicated with a sonicator (Taitec VP-5S) to disrupt cells. Then, the quantity of protein was determined with Protein Assay Kit (BioRad). Samples (2 μl each) were taken from proteins obtained from Compound E-added cells and Compound E-not added cells, respectively, and subjected to SDS-PAGE, followed by Western blotting with an anti-HA antibody (Roche) (final concentration: 0.2 μg/ml). […]
smiles,measurement,value
"C[C@H](NC(=O)Cc1cc(F)cc(F)c1)C(=O)N[C@H]1N=C(c2ccccc2)c2ccccc2N(C)C1=O [Compound E, (2S)-2-{[(3,5-difluorophenyl)acetyl]amino}-N-[(3S)-1-methyl-2-oxo-5-phenyl-2,3-dihydro-1H-1,4-benzodiazepin-3-yl]propanamide]",c-Met undegraded product (CTF band around 50 kDa) on Western blot,a band around 50 kDa (CTF: C terminal fragment) was accumulated specifically as a c-Met undegraded product
